Experimental data from patent EP2181589A1, “Neurotoxic sterol glycosides” (Shaw, Christopher Ariel, priority 2008, dated 2010).
Marks after values point to notes of the source that are not given here.

Key:
Type in all cases: in vivo, CD-1 mice
[1] = tested on: Heat shock protein-70; test: Heat shock protein-70 immunofluorescence; conditions: for Anti-Hsp-70 (VHLsc) / Anti-Hsp-70 (VHTsc): SG-fed vs control; for Anti-Hsp-70 (VHLsc): ventral horn lumbar spinal cord; for Anti-Hsp-70 (VHTsc): ventral horn thoracic spinal cord
Description: (§1) The synthetic SG was mixed with finely ground Purina Chow mouse pellets (Mouse Diet™, Purina) to create the experimental pellets with a SG content of 1000 µg per pellet. Dry materials were blended with a sterile silicon spatula. For every 5 g of standard feed, 2.5 mL of doubly-distilled water (dd)H2O was added and the dough was kneaded and round up into pellets. A single sterol glucoside containing pellet was placed in the feeding tray each morning before the addition of regular mouse chow (ad libitum). All experimental pellets were entirely consumed by the mice each day. Control mice were fed standard mouse chow pellets of identical weight with no additives. SG feeding was conducted daily for 15 weeks and mice were behaviorally monitored until sacrifice at 35 weeks (time point 1) or 52 weeks (time point 2).
Tissue-mounted slides were processed for fluorescence microscopy as follows: Sections were rinsed in coplin jars for 45 minutes at room temperature (RT) in three changes of PBS. Sections were then incubated at RT for 30 minutes in a blocking permeabilization solution made of 5% normal goat serum (NGS), 5% normal rabbit serum (NRS) or 5% BlokHen II (Aves Labs, Inc., Tigard, OR), 0.05% Triton X-100 and PBS. Subsequently, the blocking solution was tipped off and the slides were rinsed in PBS for 2 minutes. Sections were then incubated overnight in a humidified chamber at 4°C with a PBS buffered solution that contained 1% NGS or 1% NRS, 1% bovine serum albumin (BSA) and one of the following primary antibodies: (a) rabbit anti-human/mouse ATF-3 (H-90) IgG (polyclonal, 1:500; Santa Cruz Biotechnology, Inc., Santa Cruz, CA), (b) anti-activated caspase-3 IgG (monoclonal, 1:250; Chemicon International, Temecula, CA) (see FIGURE 9), (c) goat antihuman/ mouse choline acetyl transferase (ChAT) IgG (polyclonal, 1:100; Chemicon International, Temecula, CA) (see FIGURE 6), (d) rabbit anti-mouse glial fibrillary acidic protein IgG (polyclonal, 1:250; GeneTex Inc., San Antonio, TX) (see FIGURE 7), (e) rabbit antihuman/ mouse ionized calcium binding adaptor molecule 1 (IBA-1) IgG (polyclonal, 1:500; Wako Pure Chemical Industries, Ltd, Richmond, VA), (f) mouse anti-human/mouse clone AT8 PHF-1 Tau (monoclonal, 1:200; Pierce Biotechnology Inc., Rockford, IL), (g) rabbit anti-human/mouse TAR DNA-binding protein 43 (TDP43) (1:100; ProteinTech Group Inc., Chicago, IL) (See FIGURE 14), (h) chicken anti-human/mouse β-tubulin 3 (TuJ1 antigen) (polyclonal, 1:100, Aves Labs, Inc., Tigard, OR), (i) rabbit anti-mouse tyrosine hydroxylase (polyclonal, 1:500, Chemicon International, Temecula, CA or polyclonal 1:1000, Affinity BioReagents, Golden, CO) (FIGURE 10), (j) rabbit anti human/mouse anti-pJunser73 IgG (polyclonal, 1:200; Chemicon International, Temecula, CA), (k) rabbit anti human/mouse anti-HSP-70 IgG (polyclonal, 1:200; Chemicon International, Temecula, CA), or (1) rabbit anti human/mouse anti-HSP-25 IgG (polyclonal, 1:100; Chemicon International, Temecula, CA). In each experiment, additional slides were incubated with the primary antibody and the secondary antibody omitted or with secondary antibody and primary antibody omitted to test for nonspecific staining. Where appropriate, positive control slides (Alzheimer's disease patient entorhinal cortex, obtained from Drs. Claudia Schwab and Patrick McGeer of the Kinsmen Laboratory, University of British Columbia, Vancouver, BC, Canada) were also processed as above for comparison. Following overnight incubation with the primary antibody, slides were rinsed for 45 minutes at RT in three changes of PBS. […]

[2] = tested on: Lipid deposits; test: Oil red O histochemistry (lipid deposits)
Description: as §1
Tissue-mounted slides were processed to evaluate lipid distribution with light microscopy with a protocol adapted from Dr. Roy Ellis (IMVS Division of Pathology, The Queen Elizabeth Hospital, Woodville, South Australia). First, an oil red O stock solution was prepared 2 hours prior to execution of the histochemical procedures. The oil red O stock stain solution was made by mixing oil red O (0.5 g, Sigma-Aldrich, Oakville, ON, Canada) and isopropanol (100 mL, Fisher Scientific, Nepean, ON, Canada) over a 40°C water bath. Immediately prior to beginning the oil red O histochemical procedures, the oil red O working solution was made by combining 20 mL of distilled water for every 30 mL of oil red O stock stain solution. […] Slide-mounted sections were rinsed in coplin jars for 15 minutes at RT in three changes of PBS. Sections were then rinsed at RT with 60% isopropanol for 5 minutes. The spinal cord sections were then stained with a freshly prepared working solution of oil red O for 20 minutes and then rinsed with 60% isopropanol. Nuclear counterstaining was achieved by staining the sections with haematoxylin (haematoxylin, 7211, Richard Allan Scientific, Kalamazoo, MI, USA) for 1 minute. Finally, the sections were rinsed with distilled water, dried under a fume hood and cover-slipped with Entellen (Merck, Darmstadt, Germany).
The numbers of immunoreactive somata or inclusions were counted across the ventral horn of the spinal cord, across brain hemispheres, or per dorsal or ventral root with the 40x objective lens in a 600 µm / 600 µm area within region perimeters defined by a mouse brain atlas (2001). For each animal, eight cross-sections per spinal cord or brain region were studied. An average of both the right and left ventral horn for each of the eight cross sections was generated giving a final averaged number for each animal in each of the spinal cord areas. For quantification of the level of mitochondrial activity (cytochrome c oxidase labelling) in the lumbar spinal cord or tyrosine hydroxylase immunoreactivity in the substantia nigra pars compacta and striatal sections, images captured using the Motic B5 Professional Series 3.0 microscope (Motic Instruments Inc., Richmond, ON) and analyzed using Motic B5 Professional, Motic Images Advanced 3.0 (Motic Instruments Inc., Richmond, ON) were scanned into a TIFF format file and analysed using the NIH Image J 1.37 software to measure density levels of antibody labelling. Eight to 12 sections from each mouse per region of interest were included.

[3] = tested on: Phosphorylated Junser73; test: Phosphorylated Jun ser73 immunofluorescence; conditions: for Anti-pJun: SG-fed vs control
Description: as §1
(§2) Tissue-mounted slides were processed for fluorescence microscopy as follows: Sections were rinsed in coplin jars for 45 minutes at room temperature (RT) in three changes of PBS. Sections were then incubated at RT for 30 minutes in a blocking permeabilization solution made of 5% normal goat serum (NGS), 5% normal rabbit serum (NRS) or 5% BlokHen II (Aves Labs, Inc., Tigard, OR), 0.05% Triton X-100 and PBS. Subsequently, the blocking solution was tipped off and the slides were rinsed in PBS for 2 minutes. […]

[4] = tested on: Activating transcription factor-3; test: Activating transcription factor-3 immunofluorescence; conditions: for Anti-ATF-3: SG-fed vs control
Description: as §1, §2

[5] = SG-fed group over time, 35 to 52 wk

In the case of `CCC(C=CC(C)C1CCC2C3CC=C4CC(OC5OC(CO)C(O)C(O)C5O)CCC4(C)C3CCC12C)C(C)C` (stereo not drawn) [SG], the “Anti-Hsp-70 Lsc” value [1, 5] is reported as “Anti-Hsp-70 Lsc (SG-fed group over time) (ns, p=0.1223)”, the “Anti-Hsp-70 Tsc” value [1, 5] is reported as “Anti-Hsp-70 Tsc (SG-fed group over time) (ns, p=0.8319)” and the “Anti-Hsp-70 (VHLsc)” value ([1]; time-point 1, 35 wk) is reported as “Anti-Hsp-70: +1036%***”. For the same compound, the “Anti-Hsp-70 (VHTsc)” value ([1]; time-point 1, 35 wk) was “Anti-Hsp-70: (ns, p=0.9697)”, the “Anti-Hsp-70 (VHLsc)” value ([1]; time-point 2, 52 wk) was “Anti-Hsp-70: +425%* (VHLsc)” and the “Anti-Hsp-70 (VHTsc)” value ([1]; time-point 2, 52 wk) was “Anti-Hsp-70: (ns, p=0.2793)”. The “accumulation of lipid deposits over time, lumbar spinal cord” value ([2]; SG-fed animals, 35 to 52 weeks) was “did not experience an accumulation of deposits over time”, the “lipid deposits, time-dependent effects in the dorsal or ventral roots” value ([2]; SG-fed animals, 35 to 52 weeks) was “did not show time-dependent effects” and the “Lipid deposits, DR” value ([2]; SG-fed over time, 35 to 52 wk) was “SG-fed DR over time: ns, p=0.8062”. The “Lipid deposits, Lsc” value ([2]; SG-fed over time, 35 to 52 wk) was “SG-fed Lsc over time: ns, p=0.4864”, the “Lipid deposits, VR” value ([2]; SG-fed over time, 35 to 52 wk) was “SG-fed VR over time: ns, p=0.5478” and the “lipids in the dorsal roots” value ([2]; SG-fed vs control, 35 weeks) was “not significant”. For the same compound, the “lipids in the ventral spinal roots” value ([2]; SG-fed vs control, 35 weeks) was “+10%”, the “lipid deposits, inter-group differences in lumbar spinal cord, dorsal root, ventral root” value ([2]; SG-fed vs control, 52 weeks) was “statistically significant inter-group differences were not found” and the “Lipids deposits Lsc VH” value ([2]; SG-fed vs control, time-point 2, 52 wk) was “Lipids deposits Lsc VH: +10%*”. The Anti-pJun immunoreactive cells [3, 5] was “Anti-pJun immunoreactive cells (SG-fed group over time) (ns)”, the Anti-pJun ([3]; time-point 1, 35 wk) was “Anti-pJun: +199%*” and the Anti-pJun ([3]; time-point 2, 52 wk) was “Anti-pJun (ns)”. The Anti-ATF-3 immunoreactive cells [4, 5] was “Anti-ATF-3 immunoreactive cells (SG-fed group over time): -48%***”, the Anti-ATF-3 ([4]; time-point 1, 35 wk) was “Anti-ATF-3:+242%***” and the Anti-ATF-3 ([4]; time-point 2, 52 wk) was “Anti-ATF-3:+101%**”.
